One assay relates to DLD1-WRN-KO cells. Nature of the assay: Proliferation assay DLD1-WRN-KO (CellTiterGlo, off-target effects). Type of assay: cell-based. The settings on record: 96 hours, geometric mean of at least 2. Put shortly: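 DLD1 cells with CRISPR knockout of WRN were exposed overnight-seeded to eight 3-fold compound dilutions (0.1% DMSO) for 96 h at 37 °C. Viability was read as ATP by CellTiterGlo luminescence against a day-0 plate, giving GI50 and residual viability at top concentration.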

Assay [1] deals with T1, WRN helicase (aa N517-P1238) (Homo sapiens, UniProt Q14191).
T1 construct: The core helicase motif of the WRN protein (aa N517-P1238) was produced for this assay; His (N); ZZ (N); 3C protease cleavage site (N); made in house; host or cells: Sf21 insect cells (baculovirus; virus and BIICs made in SF9)
T1 sequence (Q14191 517-1238): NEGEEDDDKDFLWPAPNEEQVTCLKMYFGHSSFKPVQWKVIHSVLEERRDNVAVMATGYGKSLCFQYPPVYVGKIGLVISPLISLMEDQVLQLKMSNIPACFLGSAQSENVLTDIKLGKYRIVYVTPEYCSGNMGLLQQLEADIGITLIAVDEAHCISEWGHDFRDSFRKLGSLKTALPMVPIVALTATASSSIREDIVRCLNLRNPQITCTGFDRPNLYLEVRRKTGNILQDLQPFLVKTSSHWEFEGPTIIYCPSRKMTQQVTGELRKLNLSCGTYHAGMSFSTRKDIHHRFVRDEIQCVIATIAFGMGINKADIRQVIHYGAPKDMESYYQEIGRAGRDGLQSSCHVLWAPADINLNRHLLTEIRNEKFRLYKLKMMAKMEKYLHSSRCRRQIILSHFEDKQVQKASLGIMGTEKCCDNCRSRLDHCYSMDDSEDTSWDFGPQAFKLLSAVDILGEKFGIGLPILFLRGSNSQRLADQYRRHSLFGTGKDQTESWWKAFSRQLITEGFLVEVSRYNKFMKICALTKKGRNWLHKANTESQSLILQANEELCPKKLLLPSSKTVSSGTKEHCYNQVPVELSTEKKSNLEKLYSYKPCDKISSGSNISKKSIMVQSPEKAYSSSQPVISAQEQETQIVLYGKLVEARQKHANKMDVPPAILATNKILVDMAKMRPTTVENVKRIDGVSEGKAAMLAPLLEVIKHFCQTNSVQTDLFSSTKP
Nature of the assay: WRN ATPase assay (DNA dependent ATP hydrolysis, ADP-Glo). The class given is biochemical. The settings on record: 3 hours pre-incubation, 300 micromolar ATP, FLAP26 DNA; geometric mean of at least 2. The essentials: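 DNA-dependent ATP hydrolysis detected as ADP by ADP-Glo luminescence, using 300 μM ATP, 0.2 nM FLAP26 substrate and 10 nM WRN aa N517-P1238 (Tris pH 7.5 buffer, 2 mM MgCl2, 50 mM NaCl). IC50s fitted from normalized duplicate half-log dilutions; reported as geometric means of at least 2 replicates.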

For another assay, the system named is SW48 cells. Nature of the assay: Proliferation assay SW48 (CellTiterGlo). Type of assay: cell-based. The following applies: SW48 colon carcinoma cells, 96 hours, CellTiterGlo, geometric mean of at least 2, read-out: Proliferation Assay SW48 GI50. The essentials:
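SW48 cells, 2,000/well, treated after overnight seeding with eight 3-fold compound dilutions (0.1% DMSO) for 96 hours at 37° C. Viability read as ATP by CellTiterGlo luminescence, normalised to a day-0 plate and vehicle to give % growth; GI50 is geometric mean of ≥2 independent replicates.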

SMILES strings stand for the structures. pIC50: −log10 of the molar value. Where two headings read alike, the source gives them in different places.

Regarding `CCc1c(N2CCN(C(=O)c3ccn4ccnc4c3O)CC2)c(=O)n2nc(C3=CCOCC3)nc2n1CC(=O)Nc1ccc(C(F)(F)F)cc1C` [Example 43, 2-(2-(3,6-dihydro-2H-pyran-4-yl)-5-ethyl-6-(4-(8-hydroxyimidazo[1,2-a]pyridine-7-carbonyl)piperazin-1-yl)-7-oxo-[1,2,4]triazolo[1,5-a]pyrimidin-4(7H)-yl)-N-(2-methyl-4-(trifluoromethyl)phenyl)acetamide], the GI50 in the assay with DLD1-WRN-KO cells is more than 10000 nM; in the assay on SW48 cells (Homo sapiens, SW48, 96 h), 1000 nM. In assay [1], the pIC50 is 7.10.

In the case of `CCc1c(N2CCN(C(=O)c3c(O)ccc4nccn34)CC2)c(=O)n2nc(C3=CCOCC3)nc2n1CC(=O)Nc1ccc(C(F)(F)F)cc1C` [Example 44, 2-(2-(3,6-dihydro-2H-pyran-4-yl)-5-ethyl-6-(4-(6-hydroxyimidazo[1,2-a]pyridine-5-carbonyl)piperazin-1-yl)-7-oxo-[1,2,4]triazolo[1,5-a]pyrimidin-4(7H)-yl)-N-(2-methyl-4-(trifluoromethyl)phenyl)acetamide], the GI50 in the assay on DLD1-WRN-KO cells is more than 10000 nM; in the assay with SW48 cells (Homo sapiens, SW48, 96 h) it was 900 nM. In assay [1], this molecule showed a pIC50 of 7.10.

On to `CCc1c(N2CCN(C(=O)c3ccc(Cl)c(F)c3O)CC2)c(=O)n2nc(C3=CCOCC3)nc2n1CC(=O)Nc1ccc(C(F)(F)F)cc1C` [Example 45, 2-(6-(4-(4-chloro-3-fluoro-2-hydroxybenzoyl)piperazin-1-yl)-2-(3,6-dihydro-2H-pyran-4-yl)-5-ethyl-7-oxo-[1,2,4]triazolo[1,5-a]pyrimidin-4(7H)-yl)-N-(2-methyl-4-(trifluoromethyl)phenyl)acetamide], for which the GI50 was more than 10000 nM with DLD1-WRN-KO cells and 300 nM with SW48 cells (Homo sapiens, SW48, 96 h). The negative-log IC50 (pIC50) in assay [1] is 7.05.

In the case of `CCc1c(N2CCN(C(=O)c3c(O)ccc4nccn34)CC2)c(=O)n2nc(C3=CCOCC3)nc2n1CC(=O)Nc1ccc(C(F)(F)F)cc1Cl` [Example 46, N-(2-chloro-4-(trifluoromethyl)phenyl)-2-(2-(3,6-dihydro-2H-pyran-4-yl)-5-ethyl-6-(4-(6-hydroxyimidazo[1,2-a]pyridine-5-carbonyl)piperazin-1-yl)-7-oxo-[1,2,4]triazolo[1,5-a]pyrimidin-4(7H)-yl)acetamide], the GI50 in the assay on DLD1-WRN-KO cells is more than 10000 nM; in the assay on SW48 cells (Homo sapiens, SW48, 96 h) it was 200 nM. Also, in assay [1], the pIC50 was 7.05.

For the molecule `CCc1c(N2CCN(C(=O)c3ccnc(C)c3O)CC2)c(=O)n2nc(C3=CCOCC3)nc2n1CC(=O)Nc1ccc(C(F)(F)F)cc1C` [Example 47, 2-(2-(3,6-dihydro-2H-pyran-4-yl)-5-ethyl-6-(4-(3-hydroxy-2-methylisonicotinoyl)piperazin-1-yl)-7-oxo-[1,2,4]triazolo[1,5-a]pyrimidin-4(7H)-yl)-N-(2-methyl-4-(trifluoromethyl)phenyl)acetamide], the GI50 was more than 10000 nM in the assay with DLD1-WRN-KO cells and 900 nM in the assay on SW48 cells (Homo sapiens, SW48, 96 h). In addition, the pIC50 in assay [1] is 7.05.

As to `Cc1c(N2CCN(C(=O)c3cccnc3O)CC2)c(=O)n2nc(C3=CCOCC3)nc2n1CC(=O)Nc1ccc(C(F)(F)F)cc1` [Example 48, 2-(2-(3,6-dihydro-2H-pyran-4-yl)-6-(4-(2-hydroxynicotinoyl)piperazin-1-yl)-5-methyl-7-oxo-[1,2,4]triazolo[1,5-a]pyrimidin-4(7H)-yl)-N-(4-(trifluoromethyl)phenyl)acetamide], the GI50 is more than 10000 nM with DLD1-WRN-KO cells and more than 10000 nM with SW48 cells (Homo sapiens, SW48, 96 h). The molecule also had a pIC50 in assay [1] of 7.00.

For `CCc1c(N2CCN(C(=O)c3ccnc(C)c3O)CC2)c(=O)n2nc(C3=CCOCC3)nc2n1CC(=O)Nc1ccc(C(F)(F)F)cc1Cl` [Example 49, N-(2-chloro-4-(trifluoromethyl)phenyl)-2-(2-(3,6-dihydro-2H-pyran-4-yl)-5-ethyl-6-(4-(3-hydroxy-2-methylisonicotinoyl)piperazin-1-yl)-7-oxo-[1,2,4]triazolo[1,5-a]pyrimidin-4(7H)-yl)acetamide], the GI50 in the assay on DLD1-WRN-KO cells is more than 10000 nM; with SW48 cells (Homo sapiens, SW48, 96 h) it was 500 nM. Besides, in assay [1], the pIC50 was 6.70.

On to `CCc1c(N2CCN(C(=O)c3nccc4cccc(O)c34)CC2)c(=O)n2nc(C3=CCOCC3)nc2n1CC(=O)Nc1ccc(C(F)(F)F)cc1C` [Example 50, 2-(2-(3,6-dihydro-2H-pyran-4-yl)-5-ethyl-6-(4-(8-hydroxyisoquinoline-1-carbonyl)piperazin-1-yl)-7-oxo-[1,2,4]triazolo[1,5-a]pyrimidin-4(7H)-yl)-N-(2-methyl-4-(trifluoromethyl)phenyl)acetamide], for which the GI50 in the assay with DLD1-WRN-KO cells is more than 10000 nM; in the assay with SW48 cells (Homo sapiens, SW48, 96 h), 1000 nM. Besides, the negative logarithm of the IC50 (pIC50) in assay [1] is 6.52.

For `CCc1c(N2CCN(C(=O)c3ncc(F)c4cc[nH]c34)CC2)c(=O)n2nc(C3=CCOCC3)nc2n1CC(=O)Nc1ccc(C(F)(F)F)cc1C` [Example 51, 2-(2-(3,6-dihydro-2H-pyran-4-yl)-5-ethyl-6-(4-(4-fluoro-1H-pyrrolo[2,3-c]pyridine-7-carbonyl)piperazin-1-yl)-7-oxo-[1,2,4]triazolo[1,5-a]pyrimidin-4(7H)-yl)-N-(2-methyl-4-(trifluoromethyl)phenyl)acetamide], the GI50 was 7000 nM with DLD1-WRN-KO cells and 2000 nM with SW48 cells (Homo sapiens, SW48, 96 h). Further, in assay [1], the pIC50 is 6.22.

As for `CCc1c(N2CCN(C(=O)c3cn(C)c(=O)[nH]3)CC2)c(=O)n2nc(C3=CCCC3)nc2n1CC(=O)Nc1ccc(C(F)(F)F)cc1` [Example 52, 2-(2-(cyclopent-1-en-1-yl)-5-ethyl-6-(4-(1-methyl-2-oxo-2,3-dihydro-1H-imidazole-4-carbonyl)piperazin-1-yl)-7-oxo-[1,2,4]triazolo[1,5-a]pyrimidin-4(7H)-yl)-N-(4-(trifluoromethyl)phenyl)acetamide], the GI50 with DLD1-WRN-KO cells is more than 10000 nM; in the assay on SW48 cells (Homo sapiens, SW48, 96 h) it was 3000 nM. Moreover, in assay [1], the pIC50 is 7.30.

`CCc1c(N2CCN(C(=O)c3nn(C)c(=O)[nH]3)CC2)c(=O)n2nc(C3=CCC(OC)CC3)nc2n1CC(=O)Nc1ccc(C(F)(F)F)cc1` (stereo not drawn) [Example 53, 2-(5-ethyl-2-(4-methoxycyclohex-1-en-1-yl)-6-(4-(1-methyl-5-oxo-4,5-dihydro-1H-1,2,4-triazole-3-carbonyl)piperazin-1-yl)-7-oxo-[1,2,4]triazolo[1,5-a]pyrimidin-4(7H)-yl)-N-(4-(trifluoromethyl)phenyl)acetamide]: the GI50 with DLD1-WRN-KO cells was more than 10000 nM; in the assay with SW48 cells (Homo sapiens, SW48, 96 h) it was 800 nM. The pIC50 in assay [1] was 7.22.

With `CCc1c(N2CCN(C(C)=O)CC2)c(=O)n2nc(C3=CCOCC3)nc2n1CC(=O)Nc1ccc(C(F)(F)F)cc1` [Example 54, 2-(6-(4-acetylpiperazin-1-yl)-2-(3,6-dihydro-2H-pyran-4-yl)-5-ethyl-7-oxo-[1,2,4]triazolo[1,5-a]pyrimidin-4(7H)-yl)-N-(4-(trifluoromethyl)phenyl)acetamide], the GI50 in the assay with DLD1-WRN-KO cells was more than 10000 nM; in the assay on SW48 cells (Homo sapiens, SW48, 96 h), 1000 nM. This molecule also had a pIC50 in assay [1] of 7.00.

Regarding `CCc1c(N2CCN(C(C)=O)CC2)c(=O)n2nc(C3=CCC(OC)CC3)nc2n1CC(=O)Nc1ccc(C(F)(F)F)cc1` (stereo not drawn) [Example 55, 2-(6-(4-acetylpiperazin-1-yl)-5-ethyl-2-(4-methoxycyclohex-1-en-1-yl)-7-oxo-[1,2,4]triazolo[1,5-a]pyrimidin-4(7H)-yl)-N-(4-(trifluoromethyl)phenyl)acetamide], the GI50 in the assay on DLD1-WRN-KO cells was more than 10000 nM; in the assay with SW48 cells (Homo sapiens, SW48, 96 h), 800 nM. This molecule had a pIC50 in assay [1] of 7.00.

As for `CCc1c(N2CCN(C(=O)C3CCOC3)CC2)c(=O)n2nc(C3=CCCCO3)nc2n1CC(=O)Nc1ccc(C(F)(F)F)cc1` (stereo not drawn) [Example 56, 2-(2-(3,4-dihydro-2H-pyran-6-yl)-5-ethyl-7-oxo-6-(4-(tetrahydrofuran-3-carbonyl)piperazin-1-yl)-[1,2,4]triazolo[1,5-a]pyrimidin-4(7H)-yl)-N-(4-(trifluoromethyl)phenyl)acetamide], the figures for the GI50 with DLD1-WRN-KO cells and with SW48 cells were more than 10000 nM and 1000 nM, respectively. The molecule also gave a pIC50 in assay [1] of 7.00.

Take `CCc1c(N2CCN(C(C)=O)CC2)c(=O)n2nc(C3=CCCCO3)nc2n1CC(=O)Nc1ccc(C(F)(F)F)cc1` [Example 57, 2-(6-(4-acetylpiperazin-1-yl)-2-(3,4-dihydro-2H-pyran-6-yl)-5-ethyl-7-oxo-[1,2,4]triazolo[1,5-a]pyrimidin-4(7H)-yl)-N-(4-(trifluoromethyl)phenyl)acetamide]: the GI50 in the assay with DLD1-WRN-KO cells is more than 10000 nM; in the assay on SW48 cells (Homo sapiens, SW48, 96 h), 1000 nM. In assay [1], this molecule showed a pIC50 of 7.00.

Consider `CCc1c(N2CCN(C(C)=O)CC2)c(=O)n2nc(C3=CCOCC3)nc2n1CC(=O)Nc1ccc(C(F)(F)F)cc1C` [Example 58, 2-(6-(4-acetylpiperazin-1-yl)-2-(3,6-dihydro-2H-pyran-4-yl)-5-ethyl-7-oxo-[1,2,4]triazolo[1,5-a]pyrimidin-4(7H)-yl)-N-(2-methyl-4-(trifluoromethyl)phenyl)acetamide], for which the GI50 with DLD1-WRN-KO cells was more than 10000 nM; with SW48 cells (Homo sapiens, SW48, 96 h), 2000 nM. The same molecule showed a pIC50 in assay [1] of 7.00.

The record behind these values is patent US20260250289A1, “BICYCLIC HETEROCYCLES AND THEIR USE AS WRN INHIBITORS” (Novartis AG, priority 2022, published 2026).
